In patent US10251394B2, “Molecules having pesticidal utility, and intermediates, compositions, and processes, related thereto” (Dow AgroSciences LLC, priority 2016, dated 2019):

Key:
Assay type in all cases: in vivo
[1] = test system: Beet Armyworm (Spodoptera exigua); experiment: Bioassay on Beet Armyworm (BAW), 128-well diet tray assay; details: Beet Armyworm, Table ABC, read-out: BAW rating
Outline: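 Second-instar larvae (one to five per well) placed on artificial diet surface-treated with 50 μg/cm^2 test molecule in 90:10 acetone-water, dried, eight wells per molecule. Held at 25° C, 14:10 light-dark, five to seven days; percent mortality recorded per well and averaged across the eight wells.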

[2] = test system: Cabbage Looper (Trichoplusia ni); experiment: Bioassay on Cabbage Looper (CL), 128-well diet tray assay; details: Cabbage Looper, Table ABC, read-out: CL rating
Outline: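 Second-instar larvae, one to five per well, placed on artificial diet surface-treated with 50 μg/cm^2 compound in acetone-water, eight wells per compound. Held 5-7 days at 25° C, 14:10 light-dark; percent mortality per well averaged across wells.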

[3] = test system: Yellow Fever Mosquito (Aedes aegypti); experiment: Bioassay on Yellow Fever Mosquito (YFM) larvae, 96-well plate; details: Table ABC
Outline: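 About 1-day-old larvae in water with liver powder were added to wells holding compound from a 4000 ppm DMSO master diluted in 90:10 water:acetone. Plates covered and kept at room temperature for 3 days, then each well scored for mortality on a rating scale.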

SMILES | pest or weed control at 50 µg/cm2 [1] [%] | pest or weed control at 50 µg/cm2 [2] [%] | YFM rating [3]
O=C(NC1(C(=O)NCC(F)(F)F)CC1)c1ccc(/C(F)=C/C(c2cc(Cl)cc(Br)c2)C(F)(F)F)cc1C(F)(F)F (stereo not drawn) [F116, (Z)-4-(3-(3-Bromo-5-chlorophenyl)-1,4,4,4-tetrafluorobut-1-en-1-yl)-N-(1-((2,2,2-trifluoroethyl)carbamoyl)cyclopropyl)-2-(trifluoromethyl)benzamide] | 50 to 100 | 50 to 100 | A (80-100)
CN(CC(F)(F)F)C(=O)C1(NC(=O)c2ccc(/C(F)=C/C(c3cc(Br)c(Cl)c(Br)c3)C(F)(F)F)cc2C(F)(F)F)CC1 (stereo not drawn) [F118, (Z)-4-(3-(4-Dibromo-4-chlorophenyl)-1,4,4,4-tetrafluorobut-1-en-1-yl)-N-(1-(methyl(2,2,2-trifluoroethyl)carbamoyl)cyclopropyl)-2-(trifluoromethyl)benzamide] | 50 to 100 | 50 to 100 | B (More than 0-Less than 80)
Cc1cc(C(/C=C(\F)c2ccc(C(=O)NC3(C(=O)N(C)CC(F)(F)F)CC3)c(C(F)(F)F)c2)C(F)(F)F)cc(C)c1Cl (stereo not drawn) [F119, (Z)-4-(3-(4-Chloro-3,5-dimethylphenyl)-1,4,4,4-tetrafluorobut-1-en-1-yl)-N-(1-(methyl(2,2,2-trifluoroethyl)carbamoyl)cyclopropyl)-2-(trifluoromethyl)benzamide] | 50 to 100 | 50 to 100 | B (More than 0-Less than 80)
CN(CC(F)(F)F)C(=O)C1(NC(=O)c2ccc(/C(F)=C/C(c3ccc(Cl)c(Cl)c3)C(F)(F)F)cc2C(F)(F)F)CC1 (stereo not drawn) [F120, (Z)-4-(3-(3,4-Dichlorophenyl)-1,4,4,4-tetrafluorobut-1-en-1-yl)-N-(1-(methyl(2,2,2-trifluoroethyl)carbamoyl)cyclopropyl)-2-(trifluoromethyl)benzamide] | 50 to 100 | 50 to 100 | B (More than 0-Less than 80)
O=C(CNC(=O)c1ccc(/C(F)=C/C(c2cc(Cl)cc(Br)c2)C(F)(F)F)cc1C(F)(F)F)NCC(F)(F)F (stereo not drawn) [F122, (Z)-4-(3-(3-Bromo-5-chlorophenyl)-1,4,4,4-tetrafluorobut-1-en-1-yl)-N-(2-oxo-2-((2,2,2-trifluoroethyl)amino)ethyl)-2-(trifluoromethyl)benzamide] | 50 to 100 | 50 to 100 | B (More than 0-Less than 80)
CN(CC(F)(F)F)C(=O)C1(NC(=O)c2ccc(/C(F)=C/C(c3ccc(Br)c(Br)c3)C(F)(F)F)cc2C(F)(F)F)CC1 (stereo not drawn) [F130, (Z)-4-(3-(3,4-Dibromophenyl)-1,4,4,4-tetrafluorobut-1-en-1-yl)-N-(1-(methyl(2,2,2-trifluoroethyl)carbamoyl)cyclopropyl)-2-(trifluoromethyl)benzamide] | 50 to 100 | 50 to 100 | A (80-100)
O=C(NC1(C(=O)NCC(F)(F)F)CC1)c1ccc(/C(F)=C/C(c2ccc(F)c(Cl)c2)C(F)(F)F)cc1C(F)(F)F (stereo not drawn) [F131, (Z)-4-(3-(3-Chloro-4-fluorophenyl)-1,4,4,4-tetrafluorobut-1-en-1-yl)-N-(1-((2,2,2-trifluoroethyl)carbamoyl)cyclopropyl)-2-(trifluoromethyl)benzamide] | 50 to 100 | 50 to 100 | A (80-100)
C[C@@H](NC(=O)c1ccc(/C(F)=C/C(c2ccc(F)c(Cl)c2)C(F)(F)F)cc1C(F)(F)F)C(=O)NCC(F)(F)F (stereo partly drawn) [F132, 4-((Z)-3-(3-Chloro-4-fluorophenyl)-1,4,4,4-tetrafluorobut-1-en-1-yl)-N—((R)-1-oxo-1-((2,2,2-trifluoroethyl)amino)propan-2-yl)-2-(trifluoromethyl)benzamide] | 50 to 100 | 50 to 100 | B (More than 0-Less than 80)
O=C(NC1(C(=O)NCC(F)(F)F)CC1)c1ccc(/C(F)=C/C(c2ccc(Cl)c(F)c2)C(F)(F)F)cc1C(F)(F)F (stereo not drawn) [F136, (Z)-4-(3-(4-Chloro-3-fluorophenyl)-1,4,4,4-tetrafluorobut-1-en-1-yl)-N-(1-((2,2,2-trifluoroethyl)carbamoyl)cyclopropyl)-2-(trifluoromethyl)benzamide] | 50 to 100 | 50 to 100 | B (More than 0-Less than 80)
CN(CC(F)(F)F)C(=O)CNC(=O)c1ccc(/C(F)=C/C(c2cc(Cl)cc(Br)c2)C(F)(F)F)cc1C(F)(F)F (stereo not drawn) [F137, (Z)-4-(3-(3-Bromo-5-chlorophenyl)-1,4,4,4-tetrafluorobut-1-en-1-yl)-N-(2-(methyl(2,2,2-trifluoroethyl)amino)-2-oxoethyl)-2-(trifluoromethyl)benzamide] | 50 to 100 | 50 to 100 | B (More than 0-Less than 80)
C[C@@H](NC(=O)c1ccc(/C(F)=C/C(c2ccc(Cl)c(Br)c2)C(F)(F)F)cc1C(F)(F)F)C(=O)NCC(F)(F)F (stereo partly drawn) [F138, 4-((Z)-3-(3-Bromo-4-chlorophenyl)-1,4,4,4-tetrafluorobut-1-en-1-yl)-N—((R)-1-oxo-1-((2,2,2-trifluoroethyl)amino)propan-2-yl)-2-(trifluoromethyl)benzamide] | 50 to 100 | 50 to 100 | A (80-100)
O=C(NC1(C(=O)NCC(F)(F)F)CC1)c1ccc(/C(F)=C/C(c2ccc(Cl)c(Br)c2)C(F)(F)F)cc1C(F)(F)F (stereo not drawn) [F139, (Z)-4-(3-(3-Bromo-4-chlorophenyl)-1,4,4,4-tetrafluorobut-1-en-1-yl)-N-(1-((2,2,2-trifluoroethyl)carbamoyl)cyclopropyl)-2-(trifluoromethyl)benzamide] | 50 to 100 | 50 to 100 | A (80-100)
C[C@@H](NC(=O)c1ccc(/C(F)=C/C(c2ccc(F)c(C(F)(F)F)c2)C(F)(F)F)cc1C(F)(F)F)C(=O)NCC(F)(F)F (stereo partly drawn) [F141, N—((R)-1-Oxo-1-((2,2,2-trifluoroethyl)amino)propan-2-yl)-4-((Z)-1,4,4,4-tetrafluoro-3-(4-fluoro-3-(trifluoromethyl)phenyl)but-1-en-1-yl)-2-(trifluoromethyl)benzamide] | 50 to 100 | 50 to 100 | A (80-100)
C[C@@H](NC(=O)c1ccc(/C(F)=C/C(c2cc(Cl)c(C(F)F)c(Cl)c2)C(F)(F)F)cc1C(F)(F)F)C(=O)NCC(F)(F)F (stereo partly drawn) [F142, 4-((Z)-3-(3,5-Dichloro-4-(difluoromethyl)phenyl)-1,4,4,4-tetrafluorobut-1-en-1-yl)-N—((R)-1-oxo-1-((2,2,2-trifluoroethyl)amino)propan-2-yl)-2-(trifluoromethyl)benzamide] | 50 to 100 | 50 to 100 | A (80-100)
O=C(N[C@@H]1CON(CC(F)(F)F)C1=O)c1ccc(/C(F)=C/C(c2cc(Cl)c(C(F)F)c(Cl)c2)C(F)(F)F)cc1C(F)(F)F (stereo partly drawn) [F143, 4-((2)-3-(3,5-Dichloro-4-(difluoromethyl)phenyl)-1,4,4,4-tetrafluorobut-1-en-1-yl)-N—((R)-3-oxo-2-(2,2,2-trifluoroethyl)isoxazolidin-4-yl)-2-(trifluoromethyl)benzamide] | 50 to 100 | 50 to 100 | A (80-100)
C/C=C/c1c(Cl)cc(C(/C=C(\F)c2ccc(C(=O)N[C@H](C)C(=O)NCC(F)(F)F)c(C(F)(F)F)c2)C(F)(F)F)cc1Cl (stereo partly drawn) [F147, 4-((Z)-3-(3,5-Dichloro-4-((E)-prop-1-en-1-yl)phenyl)-1,4,4,4-tetrafluorobut-1-en-1-yl)-N—((R)-1-oxo-1-((2,2,2-trifluoroethyl)amino)propan-2-yl)-2-(trifluoromethyl)benzamide] | 50 to 100 | 50 to 100 | A (80-100)
O=C(CNC(=O)c1ccc(/C(F)=C/C(c2cc(F)c(F)c(Cl)c2)C(F)(F)F)cc1C(F)(F)F)NCC(F)(F)F (stereo not drawn) [F153, (Z)-4-(3-(3-Chloro-4,5-difluorophenyl)-1,4,4,4-tetrafluorobut-1-en-1-yl)-N-(2-oxo-2-((2,2,2-trifluoroethyl)amino)ethyl)-2-(trifluoromethyl)benzamide] | 50 to 100 | 50 to 100 | A (80-100)
O=C(CNC(=O)c1ccc(/C(F)=C/C(c2cc(F)cc(Cl)c2)C(F)(F)F)cc1C(F)(F)F)NCC(F)(F)F (stereo not drawn) [F157, (Z)-4-(3-(3-Chloro-5-fluorophenyl)-1,4,4,4-tetrafluorobut-1-en-1-yl)-N-(2-oxo-2-((2,2,2-trifluoroethyl)amino)ethyl)-2-(trifluoromethyl)benzamide] | 50 to 100 | 50 to 100 | A (80-100)
C[C@@H](NC(=O)c1ccc(/C(F)=C/C(c2cc(F)c(F)c(F)c2)C(F)(F)F)cc1C(F)(F)F)C(=O)NCC(F)(F)F (stereo partly drawn) [F159, N—((R)-1-Oxo-1-((2,2,2-trifluoroethyl)amino)propan-2-yl)-4-((Z)-1,4,4,4-tetrafluoro-3-(3,4,5-trifluorophenyl)but-1-en-1-yl)-2-(trifluoromethyl)benzamide] | 50 to 100 | 50 to 100 | A (80-100)
